± gives the expanded uncertainty stated by the source.
Assay: mn = molality of the nth substance listed, in mol/kg
Conditions: 101.3 kPa, Liquid; for speed of sound: Single path-length method; for mass density: Vibrating tube method

CCN(CC)CCNC(=O)c1ccc(N)cc1.Cl [procainamide hydrochloride] + O
Conditions | mass density, 298.15 K [kg/m3] | mass density, 308.15 K [kg/m3] | mass density, 318.15 K [kg/m3] | speed of sound, 298.15 K [m/s] | speed of sound, 308.15 K [m/s] | speed of sound, 318.15 K [m/s]
m1 = 0.0292 | 998.359 ± 0.1 | 995.314 ± 0.11 | 991.46 ± 0.11 | 1501.6 ± 1 | 1524.2 ± 1 | 1538.9 ± 1
m1 = 0.0328 | 998.521 ± 0.1 | 995.471 ± 0.11 | 991.615 ± 0.11 | 1502.1 ± 1 | 1524.6 ± 1 | 1539.2 ± 1
m1 = 0.043 | 998.975 ± 0.1 | 995.914 ± 0.1 | 992.05 ± 0.11 | 1503.6 ± 1 | 1525.8 ± 1 | 1540.3 ± 1
m1 = 0.0551 | 999.51 ± 0.1 | 996.435 ± 0.1 | 992.563 ± 0.11 | 1505.4 ± 1 | 1527.1 ± 1 | 1541.3 ± 1
m1 = 0.0689 | 1000.14 ± 0.1 | 997.048 ± 0.1 | 993.168 ± 0.11 | 1507.5 ± 1 | 1528.6 ± 1 | 1542.7 ± 1
m1 = 0.076 | 1000.45 ± 0.1 | 997.346 ± 0.1 | 993.461 ± 0.11 | 1508.5 ± 1 | 1529.5 ± 1 | 1543.3 ± 1
m1 = 0.0804 | 1000.66 ± 0.1 | 997.55 ± 0.1 | 993.641 ± 0.11 | 1509.1 ± 1 | 1530 ± 1 | 1543.7 ± 1
m1 = 0.0938 | 1001.27 ± 0.1 | 998.14 ± 0.1 | 994.212 ± 0.11 | 1511.1 ± 1 | 1531.7 ± 1 | 1544.9 ± 1
m1 = 0.1119 | 1002.05 ± 0.1 | 998.919 ± 0.1 | 994.982 ± 0.11 | 1513.8 ± 1 | 1533.8 ± 1 | 1546.4 ± 1
m1 = 0.1194 | 1002.38 ± 0.1 | 999.225 ± 0.1 | 995.305 ± 0.11 | 1514.9 ± 1 | 1534.8 ± 1 | 1547.1 ± 1
m1 = 0.1306 | 1002.87 ± 0.1 | 999.706 ± 0.1 | 995.779 ± 0.11 | 1516.6 ± 1 | 1536.1 ± 1 | 1548 ± 1
m1 = 0.1402 | 1003.3 ± 0.11 | 1000.12 ± 0.1 | 996.189 ± 0.11 | 1517.9 ± 1 | 1537.3 ± 1 | 1548.9 ± 1
m1 = 0.1601 | 1004.18 ± 0.11 | 1000.98 ± 0.1 | 997.035 ± 0.11 | 1520.9 ± 1 | 1539.7 ± 1 | 1550.6 ± 1
m1 = 0.1715 | 1004.66 ± 0.11 | 1001.46 ± 0.1 | 997.488 ± 0.1 | 1522.6 ± 1 | 1541.1 ± 1 | 1551.6 ± 1

From the NIST ThermoML archive (doi:10.1021/acs.jced.7b00452)
